Laboratory results published in ChEMBL document CHEMBL4373736, “Synthesis and biological evaluation of panaxatriol derivatives against myocardial ischemia/reperfusion injury in the rat” (Eur J Med Chem, 2020).

Assays:
Cardiac muscle cell [1] = assay: Cytoprotective activity against OGD/reperfusion induced injury in Sprague-Dawley rat cardiomyocytes assessed as effect on cell viability at 10 uM pretreated for 24 hrs followed by OGD for 2 hrs and subsequent reperfusion for 24 hrs (reference value: 43.9 to 45.4 +/- 1.1 %); format: functional
Cardiac muscle cell [2] = assay: Cytoprotective activity against OGD/reperfusion induced injury in Sprague-Dawley rat cardiomyocytes assessed as effect on cell viability at 1 uM pretreated for 24 hrs followed by OGD for 2 hrs and subsequent reperfusion for 24 hrs (reference value: 43.9 to 45.4 +/- 1.1 %); format: functional
Cardiac muscle cell [3] = assay: Cytotoxicity against Sprague-Dawley rat cardiomyocytes assessed as inhibition of cell growth at 10 uM treated for 50 hrs by MTT assay; format: cell-based
Cardiac muscle cell [4] = assay: Cytoprotective activity against OGD/reperfusion induced injury in Sprague-Dawley rat cardiomyocytes assessed as effect on cell viability at 0.1 uM pretreated for 24 hrs followed by OGD for 2 hrs and subsequent reperfusion for 24 hrs (reference value: 43.9 to 45.4 +/- 1.1 %); format: functional

SMILES	Activity (Cardiac muscle cell [1])	Activity (Cardiac muscle cell [2])	Activity (Cardiac muscle cell [3])	Activity (Cardiac muscle cell [4])
CC1(C)CCC[C@](C)([C@H]2CC[C@]3(C)[C@@H]2[C@H](O)C[C@@H]2[C@@]4(C)Cc5c(n[nH]c5CO)C(C)(C)[C@@H]4[C@H](O)C[C@]23C)O1	75.7%	64.6%	Non-Toxic	55%
CC(=O)Nc1nc2c(s1)C[C@]1(C)[C@H]3C[C@@H](O)[C@@H]4[C@@H]([C@@]5(C)CCCC(C)(C)O5)CC[C@@]4(C)[C@]3(C)CC(=O)[C@H]1C2(C)C	61.2%	53.6%	Non-Toxic	48.6%
CC1(C)CCC[C@](C)([C@H]2CC[C@]3(C)[C@@H]2[C@H](O)C[C@@H]2[C@@]4(C)Cc5c([nH]c6ccc(OC(F)(F)F)cc56)C(C)(C)[C@@H]4C(=O)C[C@]23C)O1	78.4%	70.8%	Non-Toxic	64.4%
CC1(C)CCC[C@](C)([C@H]2CC[C@]3(C)[C@@H]2[C@H](O)C[C@@H]2[C@@]4(C)Cc5sc(N)nc5C(C)(C)[C@@H]4C(=O)C[C@]23C)O1	77.7%	70.2%	Non-Toxic	60.2%
CCOC(=O)c1noc2c1C[C@]1(C)[C@H]3C[C@@H](O)[C@@H]4[C@@H]([C@@]5(C)CCCC(C)(C)O5)CC[C@@]4(C)[C@]3(C)C[C@@H](O)[C@H]1C2(C)C	74.7%	67.9%	Non-Toxic	57.5%
COc1ccc(-c2nc3c(s2)C[C@]2(C)[C@H]4C[C@@H](O)[C@@H]5[C@@H]([C@@]6(C)CCCC(C)(C)O6)CC[C@@]5(C)[C@]4(C)CC(=O)[C@H]2C3(C)C)cc1	78.5%	71.3%	Non-Toxic	64.9%
CNc1nc2c(s1)C[C@]1(C)[C@H]3C[C@@H](O)[C@@H]4[C@@H]([C@@]5(C)CCCC(C)(C)O5)CC[C@@]4(C)[C@]3(C)CC(=O)[C@H]1C2(C)C	58.8%	52.7%	Non-Toxic	47%
CC1(C)CCC[C@](C)([C@H]2CC[C@]3(C)[C@@H]2[C@H](O)C[C@@H]2[C@@]4(C)Cc5c([nH]c6c(Cl)cc(F)cc56)C(C)(C)[C@@H]4C(=O)C[C@]23C)O1	62.1%	57.1%	Non-Toxic	52.9%
CC1(C)CCC[C@](C)([C@H]2CC[C@]3(C)[C@@H]2[C@H](O)C[C@@H]2[C@@]4(C)Cc5sc(-c6ccc(C(F)(F)F)cc6)nc5C(C)(C)[C@@H]4C(=O)C[C@]23C)O1	62.9%	57.9%	Non-Toxic	51.6%
CC1(C)CCC[C@](C)([C@H]2CC[C@]3(C)[C@@H]2[C@H](O)C[C@@H]2[C@@]4(C)Cc5c[nH]nc5C(C)(C)[C@@H]4[C@H](O)C[C@]23C)O1	61.7%	55.9%	Non-Toxic	48.6%
CC(C)c1nc2c(s1)C[C@]1(C)[C@H]3C[C@@H](O)[C@@H]4[C@@H]([C@@]5(C)CCCC(C)(C)O5)CC[C@@]4(C)[C@]3(C)CC(=O)[C@H]1C2(C)C	66%	59.5%	Non-Toxic	50.6%
Cc1nc2c(s1)C[C@]1(C)[C@H]3C[C@@H](O)[C@@H]4[C@@H]([C@@]5(C)CCCC(C)(C)O5)CC[C@@]4(C)[C@]3(C)CC(=O)[C@H]1C2(C)C	58.5%	52.1%	Non-Toxic	48.7%
CC1(C)CCC[C@](C)([C@H]2CC[C@]3(C)[C@@H]2[C@H](O)C[C@@H]2[C@@]4(C)Cc5sc(CC#N)nc5C(C)(C)[C@@H]4C(=O)C[C@]23C)O1	70.1%	64.6%	Non-Toxic	58.6%
CC1(C)CCC[C@](C)([C@H]2CC[C@]3(C)[C@@H]2[C@H](O)C[C@@H]2[C@@]4(C)Cc5sc(Br)nc5C(C)(C)[C@@H]4C(=O)C[C@]23C)O1	77.2%	69.2%	Non-Toxic	59.5%
CC1(C)CCC[C@](C)([C@H]2CC[C@]3(C)[C@@H]2[C@H](O)C[C@@H]2[C@@]4(C)Cc5nccnc5C(C)(C)[C@@H]4[C@@H](O)C[C@]23C)O1	70.3%	62.3%	Non-Toxic	54.9%
CC1(C)CCC[C@](C)([C@H]2CC[C@]3(C)[C@@H]2[C@H](O)C[C@@H]2[C@@]4(C)Cc5cnoc5C(C)(C)[C@@H]4[C@H](O)C[C@]23C)O1	76.9%	67.2%	Non-Toxic	60.6%
CCOC(=O)c1[nH]nc2c1C[C@]1(C)[C@H]3C[C@@H](O)[C@@H]4[C@@H]([C@@]5(C)CCCC(C)(C)O5)CC[C@@]4(C)[C@]3(C)C[C@@H](O)[C@H]1C2(C)C	60.4%	54.1%	Non-Toxic	48%
CC1(C)CCC[C@](C)([C@H]2CC[C@]3(C)[C@@H]2[C@H](O)C[C@@H]2[C@@]4(C)Cc5c([nH]c6ccc(S(N)(=O)=O)cc56)C(C)(C)[C@@H]4C(=O)C[C@]23C)O1	66.3%	61.5%	Non-Toxic	55.1%
C=CCNc1nc2c(s1)C[C@]1(C)[C@H]3C[C@@H](O)[C@@H]4[C@@H]([C@@]5(C)CCCC(C)(C)O5)CC[C@@]4(C)[C@]3(C)CC(=O)[C@H]1C2(C)C	77.4%	70%	Non-Toxic	61.6%
CCOC(=O)c1nn(-c2ccccc2)c2c1C[C@]1(C)[C@H]3C[C@@H](O)[C@@H]4[C@@H]([C@@]5(C)CCCC(C)(C)O5)CC[C@@]4(C)[C@]3(C)C[C@@H](O)[C@H]1C2(C)C	63.6%	56.8%	Non-Toxic	51.4%
CC1(C)CCC[C@](C)([C@H]2CC[C@]3(C)[C@@H]2[C@H](O)C[C@@H]2[C@@]4(C)Cc5cnn(-c6ccc(F)cc6)c5C(C)(C)[C@@H]4[C@H](O)C[C@]23C)O1	73.2%	65.3%	Non-Toxic	56.5%
CC1(C)CCC[C@](C)([C@H]2CC[C@]3(C)[C@@H]2[C@H](O)C[C@@H]2[C@@]4(C)Cc5sc(-c6ccc(Cl)cc6)nc5C(C)(C)[C@@H]4C(=O)C[C@]23C)O1	60.3%	54.8%	Non-Toxic	49.5%
CC1(C)CCC[C@](C)([C@H]2CC[C@]3(C)[C@@H]2[C@H](O)C[C@@H]2[C@@]4(C)Cc5c(CO)noc5C(C)(C)[C@@H]4[C@H](O)C[C@]23C)O1	66.8%	60.9%	Non-Toxic	55.1%
CC1(C)CCC[C@](C)([C@H]2CC[C@]3(C)[C@@H]2[C@H](O)C[C@@H]2[C@@]4(C)Cc5cnn(-c6ccccc6)c5C(C)(C)[C@@H]4[C@H](O)C[C@]23C)O1	62.5%	57.3%	Non-Toxic	50.8%
CC1(C)CCC[C@](C)([C@H]2CC[C@]3(C)[C@@H]2[C@H](O)C[C@@H]2[C@@]4(C)Cc5sc(Nc6ccccc6)nc5C(C)(C)[C@@H]4C(=O)C[C@]23C)O1	63%	56%	Non-Toxic	49.7%
CC1(C)CCC[C@](C)([C@H]2CC[C@]3(C)[C@@H]2[C@H](O)C[C@@H]2[C@@]4(C)Cc5c(n[nH]c5C(F)(F)F)C(C)(C)[C@@H]4[C@H](O)C[C@]23C)O1	76.4%	67.6%	Non-Toxic	60.2%
CC1(C)CCC[C@](C)([C@H]2CC[C@]3(C)[C@@H]2[C@H](O)C[C@@H]2[C@@]4(C)Cc5c([nH]c6ccc(F)cc56)C(C)(C)[C@@H]4C(=O)C[C@]23C)O1	63.6%	58.8%	Non-Toxic	54.6%
CC1(C)CCC[C@](C)([C@H]2CC[C@]3(C)[C@@H]2[C@H](O)C[C@@H]2[C@@]4(C)Cc5nccnc5C(C)(C)[C@@H]4C(=O)C[C@]23C)O1	71.5%	64%	Non-Toxic	56.4%
CC1(C)CCC[C@](C)([C@H]2CC[C@]3(C)[C@@H]2[C@H](O)C[C@@H]2[C@@]4(C)Cc5c(C(=O)O)nn(-c6ccccc6)c5C(C)(C)[C@@H]4[C@H](O)C[C@]23C)O1	63.1%	56.2%	Non-Toxic	51.2%
CC1(C)CCC[C@](C)([C@H]2CC[C@]3(C)[C@@H]2[C@H](O)C[C@@H]2[C@@]4(C)Cc5sc(NC(=N)N)nc5C(C)(C)[C@@H]4C(=O)C[C@]23C)O1	57.2%	52.5%	Non-Toxic	48.9%
